# Experimental data from ChEMBL document CHEMBL1201862, “PubChem BioAssay data set” (2004).
#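 Values below derive from 48-hour exposures of cells grown in 96-well plates, with endpoints linearly interpolated between the two concentrations bracketing the appropriate inhibition level. Here, GI50 denotes the concentration required for 50% inhibition of growth.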 The source made the active and inactive calls. Rule as the data show it: active = GI50 up to about 1.1 µM and inactive = higher.
# How the values were obtained:
# Experiment in all cases: NCI anticancer screen, dose series, 48 h
# SW-620 = test system: SW-620
# Malme-3M = test system: Malme-3M
# SK-MEL-2 = test system: SK-MEL-2
# A498 = test system: A498
# OVCAR-4 = test system: OVCAR-4
# HCT-116 = test system: HCT-116
# SK-OV-3 = test system: SK-OV-3
# ACHN = test system: ACHN
# EKVX = test system: EKVX
# NCI-H460 = test system: NCI-H460
# OVCAR-5 = test system: OVCAR-5
# SNB-19 = test system: SNB-19
# LOX IMVI = test system: LOX IMVI
# UO-31 = test system: UO-31
# SN12C = test system: SN12C
# NCI-H226 = test system: NCI-H226
# RPMI-8226 = test system: RPMI-8226
# HL-60 = test system: HL-60
SMILES,GI50 (SW-620),GI50 (Malme-3M),GI50 (SK-MEL-2),GI50 (A498),GI50 (OVCAR-4),GI50 (HCT-116),GI50 (SK-OV-3),GI50 (ACHN),GI50 (EKVX),GI50 (NCI-H460),GI50 (OVCAR-5),GI50 (SNB-19),GI50 (LOX IMVI),GI50 (UO-31),GI50 (SN12C),GI50 (NCI-H226),GI50 (RPMI-8226),GI50 (HL-60)
CN1CC(=O)N2Cc3ccccc3-n3cccc3C2C1 (centres undefined),> 100 µM (inactive),> 100 µM (inactive),> 100 µM (inactive),> 100 µM (inactive),> 100 µM (inactive),> 100 µM (inactive),> 100 µM (inactive),> 100 µM (inactive),> 100 µM (inactive),> 100 µM (inactive),> 100 µM (inactive),> 100 µM (inactive),> 100 µM (inactive),> 100 µM (inactive),> 100 µM (inactive),–,–,–
COc1cccc(C=O)c1[O-].COc1cccc(C=O)c1[O-].[Zn+2],56.1 µM (inactive),69 µM (inactive),48.9 µM (inactive),> 100 µM (inactive),57.5 µM (inactive),44.3 µM (inactive),36.6 µM (inactive),44.1 µM (inactive),61.5 µM (inactive),42.1 µM (inactive),53.7 µM (inactive),> 100 µM (inactive),76.9 µM (inactive),28.2 µM (inactive),39.7 µM (inactive),> 100 µM (inactive),49.1 µM (inactive),–
O=C1NC(O)n2c(=O)[nH]c(=O)n21 (centres undefined),> 100 µM (inactive),–,> 100 µM (inactive),–,> 100 µM (inactive),> 100 µM (inactive),> 100 µM (inactive),> 100 µM (inactive),> 100 µM (inactive),> 100 µM (inactive),> 100 µM (inactive),> 100 µM (inactive),> 100 µM (inactive),> 100 µM (inactive),> 100 µM (inactive),> 100 µM (inactive),> 100 µM (inactive),71 µM (inactive)
N#CC1C[C@@H]2CC3(CCC2CN1C(=O)c1ccccc1)OCCO3 (some centres undefined),> 100 µM (inactive),> 100 µM (inactive),0.0925 µM (active),> 100 µM (inactive),> 100 µM (inactive),> 100 µM (inactive),> 100 µM (inactive),> 100 µM (inactive),> 100 µM (inactive),> 100 µM (inactive),> 100 µM (inactive),> 100 µM (inactive),> 100 µM (inactive),> 100 µM (inactive),> 100 µM (inactive),–,> 100 µM (inactive),> 100 µM (inactive)
CN(C)NC(=S)NC12CC3CC(CC(C3)C1)C2,> 100 µM (inactive),> 100 µM (inactive),> 100 µM (inactive),> 100 µM (inactive),> 100 µM (inactive),> 100 µM (inactive),> 100 µM (inactive),> 100 µM (inactive),> 100 µM (inactive),> 100 µM (inactive),> 100 µM (inactive),> 100 µM (inactive),> 100 µM (inactive),> 100 µM (inactive),> 100 µM (inactive),> 100 µM (inactive),–,> 100 µM (inactive)
O=c1cc(-c2ccccc2)[nH]c2c(F)ccc(F)c12,35.3 µM (inactive),31.7 µM (inactive),16.4 µM (inactive),–,> 100 µM (inactive),40.6 µM (inactive),> 100 µM (inactive),> 100 µM (inactive),–,32.5 µM (inactive),43.9 µM (inactive),–,49.3 µM (inactive),88.3 µM (inactive),63.5 µM (inactive),37.6 µM (inactive),31.1 µM (inactive),31.8 µM (inactive)
NC1=NNC(=O)c2nnc3c(C(=O)O)cnn3c2S1,> 100 µM (inactive),> 100 µM (inactive),–,–,> 100 µM (inactive),> 100 µM (inactive),> 100 µM (inactive),–,> 100 µM (inactive),–,> 100 µM (inactive),> 100 µM (inactive),–,> 100 µM (inactive),> 100 µM (inactive),–,> 100 µM (inactive),> 100 µM (inactive)
COc1ccc(NC(=O)CC(=O)N2N=C(N(CCC#N)c3cccc(C)c3)CC2c2ccccc2)cc1 (centres undefined),> 100 µM (inactive),> 100 µM (inactive),> 100 µM (inactive),–,> 100 µM (inactive),> 100 µM (inactive),> 100 µM (inactive),> 100 µM (inactive),> 100 µM (inactive),> 100 µM (inactive),> 100 µM (inactive),> 100 µM (inactive),–,> 100 µM (inactive),> 100 µM (inactive),> 100 µM (inactive),> 100 µM (inactive),> 100 µM (inactive)
CC(=O)Nc1ccc(/C=C2\N=C(c3ccccc3)OC2=O)cc1,> 100 µM (inactive),6.1 µM (inactive),> 100 µM (inactive),–,> 100 µM (inactive),79.4 µM (inactive),> 100 µM (inactive),> 100 µM (inactive),> 100 µM (inactive),68.5 µM (inactive),> 100 µM (inactive),> 100 µM (inactive),80.2 µM (inactive),> 100 µM (inactive),55 µM (inactive),> 100 µM (inactive),48.8 µM (inactive),76.7 µM (inactive)
CCOC(=O)[C@H]1CSC[C@@H](C(=O)OC)N1,> 100 µM (inactive),> 100 µM (inactive),> 100 µM (inactive),> 100 µM (inactive),> 100 µM (inactive),> 100 µM (inactive),> 100 µM (inactive),> 100 µM (inactive),> 100 µM (inactive),> 100 µM (inactive),> 100 µM (inactive),> 100 µM (inactive),> 100 µM (inactive),> 100 µM (inactive),> 100 µM (inactive),–,> 100 µM (inactive),> 100 µM (inactive)
CCOc1cc2c(cnc3c4cc(OC)c(OC)cc4ccc23)cc1OC,> 100 µM (inactive),> 100 µM (inactive),> 100 µM (inactive),> 100 µM (inactive),> 100 µM (inactive),> 100 µM (inactive),> 100 µM (inactive),> 100 µM (inactive),> 100 µM (inactive),> 100 µM (inactive),> 100 µM (inactive),> 100 µM (inactive),–,> 100 µM (inactive),> 100 µM (inactive),–,> 100 µM (inactive),–
O=C(CP(=O)(O)O)c1cccs1,> 100 µM (inactive),> 100 µM (inactive),> 100 µM (inactive),> 100 µM (inactive),–,> 100 µM (inactive),> 100 µM (inactive),> 100 µM (inactive),> 100 µM (inactive),> 100 µM (inactive),> 100 µM (inactive),> 100 µM (inactive),> 100 µM (inactive),> 100 µM (inactive),> 100 µM (inactive),–,> 100 µM (inactive),> 100 µM (inactive)
O=C1CCSC2=C1SCc1sccc12,> 100 µM (inactive),> 100 µM (inactive),> 100 µM (inactive),–,> 100 µM (inactive),–,> 100 µM (inactive),–,93.5 µM (inactive),> 100 µM (inactive),> 100 µM (inactive),> 100 µM (inactive),> 100 µM (inactive),> 100 µM (inactive),> 100 µM (inactive),–,79.3 µM (inactive),> 100 µM (inactive)
COC(=O)c1c2c(c(-c3ccccc3)c3c1-c1nc(Cl)ccc1CC3)CCc1ccc(Cl)nc1-2,> 100 µM (inactive),> 100 µM (inactive),–,> 100 µM (inactive),> 100 µM (inactive),77.6 µM (inactive),> 100 µM (inactive),> 100 µM (inactive),61.4 µM (inactive),70.6 µM (inactive),> 100 µM (inactive),64 µM (inactive),> 100 µM (inactive),> 100 µM (inactive),> 100 µM (inactive),52.6 µM (inactive),> 100 µM (inactive),> 100 µM (inactive)
COc1ccc2c(c1)C(CCN)C(=O)N2 (centres undefined),> 100 µM (inactive),> 100 µM (inactive),> 100 µM (inactive),> 100 µM (inactive),> 100 µM (inactive),> 100 µM (inactive),> 100 µM (inactive),> 100 µM (inactive),> 100 µM (inactive),> 100 µM (inactive),> 100 µM (inactive),–,> 100 µM (inactive),–,–,–,> 100 µM (inactive),> 100 µM (inactive)
c1ccc2sc(C3(N4CCC5(CC4)OCCO5)CCCCC3)cc2c1,> 100 µM (inactive),> 100 µM (inactive),–,> 100 µM (inactive),> 100 µM (inactive),58.1 µM (inactive),> 100 µM (inactive),> 100 µM (inactive),> 100 µM (inactive),48.5 µM (inactive),55.5 µM (inactive),> 100 µM (inactive),> 100 µM (inactive),> 100 µM (inactive),88.3 µM (inactive),18.6 µM (inactive),29.4 µM (inactive),12.2 µM (inactive)
O=C1CC(S(=O)(=O)O)C=C1Nc1cccc(Cl)c1 (centres undefined),> 100 µM (inactive),> 100 µM (inactive),> 100 µM (inactive),> 100 µM (inactive),> 100 µM (inactive),> 100 µM (inactive),> 100 µM (inactive),> 100 µM (inactive),> 100 µM (inactive),> 100 µM (inactive),> 100 µM (inactive),> 100 µM (inactive),> 100 µM (inactive),> 100 µM (inactive),> 100 µM (inactive),> 100 µM (inactive),–,> 100 µM (inactive)
